The record followed here is patent publication US10988477B2 (Merck Patent GmbH, priority 2018, dated 2021).

A value given as a limit tells only on which side of the number the result lay.

The target in the experiment is GCN2 kinase (Homo sapiens, UniProt Q9P2K8). The experiment can be described thus: GCN2 enzyme inhibition assay (Transcreener ADP2 fluorescence polarization). Format: biochemical. As to conditions: Enzyme activity for compounds of Formula IV; Ki(app), 280 μM ATP, 25° C. The essentials: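 4 nM GCN2 + 200 μM (RS)7 + compound (0–8 μM), 10 min preinc.; start with ATP (280 μM final); 1 h, 25 °C; pH 7.5 Tris/NaCl/MgCl2/DTT; ADP FP readout; IC50, Ki(app) via tight-binding fit.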
GCN2 kinase, sequence (Q9P2K8 whole entry): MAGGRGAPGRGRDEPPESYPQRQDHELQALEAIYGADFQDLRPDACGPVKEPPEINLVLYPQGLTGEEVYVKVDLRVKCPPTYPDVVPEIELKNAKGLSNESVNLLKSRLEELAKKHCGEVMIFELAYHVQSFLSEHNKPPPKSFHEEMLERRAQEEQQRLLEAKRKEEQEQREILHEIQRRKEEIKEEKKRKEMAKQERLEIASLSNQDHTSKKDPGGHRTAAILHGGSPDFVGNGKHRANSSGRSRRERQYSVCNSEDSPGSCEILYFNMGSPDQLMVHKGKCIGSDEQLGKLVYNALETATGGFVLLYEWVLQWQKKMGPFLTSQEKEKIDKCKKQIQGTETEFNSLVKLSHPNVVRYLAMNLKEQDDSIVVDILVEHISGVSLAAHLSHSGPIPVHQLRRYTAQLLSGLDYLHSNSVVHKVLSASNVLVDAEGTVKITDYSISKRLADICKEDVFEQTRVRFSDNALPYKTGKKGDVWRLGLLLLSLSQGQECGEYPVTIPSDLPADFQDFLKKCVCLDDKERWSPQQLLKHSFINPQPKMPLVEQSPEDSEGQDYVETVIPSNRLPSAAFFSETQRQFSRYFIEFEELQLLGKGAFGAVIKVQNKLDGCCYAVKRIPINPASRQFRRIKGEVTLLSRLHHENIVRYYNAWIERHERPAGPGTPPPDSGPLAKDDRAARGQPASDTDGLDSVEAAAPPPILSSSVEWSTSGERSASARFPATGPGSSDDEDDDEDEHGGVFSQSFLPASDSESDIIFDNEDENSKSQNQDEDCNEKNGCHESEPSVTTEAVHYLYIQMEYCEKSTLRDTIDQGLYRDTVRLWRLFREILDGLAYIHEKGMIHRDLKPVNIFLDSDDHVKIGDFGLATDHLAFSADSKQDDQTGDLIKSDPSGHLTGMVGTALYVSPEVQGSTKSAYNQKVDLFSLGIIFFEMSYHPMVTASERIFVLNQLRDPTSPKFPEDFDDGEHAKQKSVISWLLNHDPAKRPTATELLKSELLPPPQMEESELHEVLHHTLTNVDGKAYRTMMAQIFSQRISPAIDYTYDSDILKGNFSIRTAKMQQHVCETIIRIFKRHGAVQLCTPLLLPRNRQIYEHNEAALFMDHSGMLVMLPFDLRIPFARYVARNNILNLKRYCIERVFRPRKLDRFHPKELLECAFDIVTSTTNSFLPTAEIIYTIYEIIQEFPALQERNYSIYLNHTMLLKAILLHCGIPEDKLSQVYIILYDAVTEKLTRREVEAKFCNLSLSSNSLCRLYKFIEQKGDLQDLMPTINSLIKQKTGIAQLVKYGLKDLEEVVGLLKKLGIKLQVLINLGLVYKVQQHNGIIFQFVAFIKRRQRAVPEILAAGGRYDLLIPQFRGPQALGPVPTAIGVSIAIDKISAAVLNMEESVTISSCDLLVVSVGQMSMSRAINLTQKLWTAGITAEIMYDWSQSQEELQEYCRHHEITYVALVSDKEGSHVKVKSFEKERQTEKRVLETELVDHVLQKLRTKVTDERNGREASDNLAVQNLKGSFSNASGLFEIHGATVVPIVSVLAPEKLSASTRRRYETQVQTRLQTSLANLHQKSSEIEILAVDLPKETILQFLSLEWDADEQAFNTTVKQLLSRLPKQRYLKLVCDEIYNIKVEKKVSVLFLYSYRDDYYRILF
(In general: Fluorescence polarisation rises when a labelled molecule tumbles more slowly, as on binding a larger partner.)
As for `CC1CCCN(c2ccnc(-c3cnc4cnc(C(N)=O)cn34)n2)C1` (stereo not drawn) [IV-187, 3-(4-(3-Methylpiperidin-1-yl)pyrimidin-2-yl)imidazo[1,2-a]pyrazine-6-carboxamide], the Ki lay within 10 to 100 nM.

The compound `CC(=O)N1CCN(c2nc(C)cc(-c3cnc4cnc(C(N)=O)cn34)n2)CC1` [IV-188, 3-(2-(4-Acetylpiperazin-1-yl)-6-methylpyrimidin-4-yl)imidazo[1,2-a]pyrazine-6-carboxamide] gave a Ki of 100 to 1000 nM.

For `CC(=O)N1CCCN(c2ccnc(-c3cnc4cnc(C(N)=O)cn34)n2)CC1` [IV-190, 3-(4-(4-Acetyl-1,4-diazepan-1-yl)pyrimidin-2-yl)imidazo[1,2-a]pyrazine-6-carboxamide], the Ki was 100 to 1000 nM.

`Cc1cc(N2CCN(C(N)=O)CC2)nc(-c2cnc3cnc(C(N)=O)cn23)n1` [IV-196, 3-(4-(4-Carbamoylpiperazin-1-yl)-6-methylpyrimidin-2-yl)imidazo[1,2-a]pyrazine-6-carboxamide] had a Ki of 10 to 100 nM.

For `CC(=O)N1CCN(c2ccnc(-c3cnc4cnc(-c5cc[nH]n5)cn34)n2)CC1` [IV-203, 1-(4-(2-(6-(1H-Pyrazol-3-yl)imidazo[1,2-a]pyrazin-3-yl)pyrimidin-4-yl)piperazin-1-yl)ethan-1-one], the Ki was in the range of 10 to 100 nM.

With `CC1CCCN(c2cccc(-c3cnc4cnc(C(N)=O)cn34)n2)C1` (stereo not drawn) [IV-205, 3-(6-(3-Methylpiperidin-1-yl)pyridin-2-yl)imidazo[1,2-a]pyrazine-6-carboxamide], the Ki was 10 to 100 nM.

As for `CN1CCN(c2cccc(-c3cnc4cnc(C(N)=O)cn34)n2)CC1` [IV-212, 3-(6-(4-Methylpiperazin-1-yl)pyridin-2-yl)imidazo[1,2-a]pyrazine-6-carboxamide], the Ki was 100 to 1000 nM.

`CC1C(c2cn[nH]c2)OCCN1c1ccnc(-c2cnc3cnc(C(F)(F)F)cn23)n1` (stereo not drawn) [IV-218, 3-Methyl-2-(1H-pyrazol-4-yl)-4-(2-(6-(trifluoromethyl)imidazo[1,2-a]pyrazin-3-yl)pyrimidin-4-yl)morpholine] gave a Ki of 10 to 100 nM.

The compound `NC(=O)c1cn2c(-c3cccc(N4CCC(O)CC4)n3)cnc2cn1` [IV-219, 3-(6-(4-Hydroxypiperidin-1-yl)pyridin-2-yl)imidazo[1,2-a]pyrazine-6-carboxamide] had a Ki of 10 to 100 nM.

In turn, `NC(=O)c1cn2c(-c3cccc(N4CCCC(CO)C4)n3)cnc2cn1` (stereo not drawn) [IV-220, 3-(6-(3-(Hydroxymethyl)piperidin-1-yl)pyridin-2-yl)imidazo[1,2-a]pyrazine-6-carboxamide] gave a Ki of 10 to 100 nM.

As to `NC(=O)c1cn2c(-c3cccc(N4CCC(CO)CC4)n3)cnc2cn1` [IV-221, 3-(6-(4-(Hydroxymethyl)piperidin-1-yl)pyridin-2-yl)imidazo[1,2-a]pyrazine-6-carboxamide], the Ki lay within 10 to 100 nM.

In turn, `CC(C)(O)C1CCN(c2cccc(-c3cnc4cnc(C(N)=O)cn34)n2)CC1` [IV-226, 3-(6-(4-(2-Hydroxypropan-2-yl)piperidin-1-yl)pyridin-2-yl)imidazo[1,2-a]pyrazine-6-carboxamide] gave a Ki of 10 to 100 nM.

The compound `NC(=O)c1cn2c(-c3cccc(N4CCN5C(=O)NCC5C4)n3)cnc2cn1` (stereo not drawn) [IV-227, 3-(6-(3-Oxohexahydroimidazo[1,5-a]pyrazin-7(1H)-yl)pyridin-2-yl)imidazo[1,2-a]pyrazine-6-carboxamide] returned a Ki of 100 to 1000 nM.

`FC(F)c1cn2c(-c3cccc(-c4cccc5[nH]ccc45)n3)cnc2cn1` [IV-233, 3-(6-(1H-Indol-4-yl)pyridin-2-yl)-6-(difluoromethyl)imidazo[1,2-a]pyrazine] registered a Ki of 10 to 100 nM.

With `CN1CCN(c2ccnc(-c3cnc4cnc(C(N)=O)cn34)n2)CC1` [IV-239, 3-(4-(4-Methylpiperazin-1-yl)pyrimidin-2-yl)imidazo[1,2-a]pyrazine-6-carboxamide], the Ki was in the range of 100 to 1000 nM.

`NC(=O)c1cn2c(-c3nccc(N4CCOCC4)n3)cnc2cn1` [IV-240] registered a Ki of 100 to 1000 nM.

Compound `NC(=O)c1cn2c(-c3nccc(N4CCCCC4CO)n3)cnc2cn1` (stereo not drawn) [IV-241, 3-(4-(2-(Hydroxymethyl)piperidin-1-yl)pyrimidin-2-yl)imidazo[1,2-a]pyrazine-6-carboxamide] yielded a Ki of 100 to 1000 nM.

`NC(=O)c1cn2c(-c3nccc(N4CCCC(CO)C4)n3)cnc2cn1` (stereo not drawn) [IV-242, 3-(4-(3-(Hydroxymethyl)piperidin-1-yl)pyrimidin-2-yl)imidazo[1,2-a]pyrazine-6-carboxamide] displayed a Ki of 10 to 100 nM.

Take `NC(=O)c1cn2c(-c3nccc(N4CCC(CO)CC4)n3)cnc2cn1` [IV-243, 3-(4-(4-(Hydroxymethyl)piperidin-1-yl)pyrimidin-2-yl)imidazo[1,2-a]pyrazine-6-carboxamide]: the Ki fell in the range of 10 to 100 nM.

For the compound `CC(=O)NC1CCN(c2ccnc(-c3cnc4cnc(C(N)=O)cn34)n2)CC1` [IV-248, 3-(4-(4-Acetamidopiperidin-1-yl)pyrimidin-2-yl)imidazo[1,2-a]pyrazine-6-carboxamide], the Ki was 10 to 100 nM.

In turn, `CC(=O)NC1CCCN(c2ccnc(-c3cnc4cnc(C(N)=O)cn34)n2)C1` (stereo not drawn) [IV-249, 3-(4-(3-Acetamidopiperidin-1-yl)pyrimidin-2-yl)imidazo[1,2-a]pyrazine-6-carboxamide] displayed a Ki of 100 to 1000 nM.

The compound `CS(=O)(=O)NC1CCCN(c2ccnc(-c3cnc4cnc(C(N)=O)cn34)n2)C1` (stereo not drawn) [IV-250, 3-(4-(3-(Methylsulfonamido)piperidin-1-yl)pyrimidin-2-yl)imidazo[1,2-a]pyrazine-6-carboxamide] had a Ki of 100 to 1000 nM.

The compound `CNS(=O)(=O)C1CCCN(c2ccnc(-c3cnc4cnc(C(N)=O)cn34)n2)C1` (stereo not drawn) [IV-251, 3-(4-(3-(N-Methylsulfamoyl)piperidin-1-yl)pyrimidin-2-yl)imidazo[1,2-a]pyrazine-6-carboxamide] returned a Ki of 100 to 1000 nM.

The compound `CNS(=O)(=O)C1CCN(c2ccnc(-c3cnc4cnc(C(N)=O)cn34)n2)CC1` [IV-252, 3-(4-(4-(N-Methylsulfamoyl)piperidin-1-yl)pyrimidin-2-yl)imidazo[1,2-a]pyrazine-6-carboxamide] returned a Ki of 100 to 1000 nM.

Compound `N#CC1CN(c2ccnc(-c3cnc4cnc(C(N)=O)cn34)n2)CCC1=O` (stereo not drawn) [IV-253, 3-(4-(3-Cyano-4-oxopiperidin-1-yl)pyrimidin-2-yl)imidazo[1,2-a]pyrazine-6-carboxamide] registered a Ki of 10 to 100 nM.

The compound `N#CC1CCN(c2ccnc(-c3cnc4cnc(C(N)=O)cn34)n2)CC1` [IV-254, 3-(4-(4-Cyanopiperidin-1-yl)pyrimidin-2-yl)imidazo[1,2-a]pyrazine-6-carboxamide] came in with a Ki of 10 to 100 nM.

The compound `FC(F)(F)c1cn2c(-c3nccc(N4CCCC(n5ccnc5)C4)n3)cnc2cn1` (stereo not drawn) [IV-255, 3-(4-(3-(1H-Imidazol-1-yl)piperidin-1-yl)pyrimidin-2-yl)-6-(trifluoromethyl)imidazo[1,2-a]pyrazine] yielded a Ki of 10 to 100 nM.

With `NC(=O)c1cn2c(-c3nccc(N4CCCC(N)C4)n3)cnc2cn1` (stereo not drawn) [IV-256, 3-(4-(3-Aminopiperidin-1-yl)pyrimidin-2-yl)imidazo[1,2-a]pyrazine-6-carboxamide], the Ki fell in the range of 100 to 1000 nM.

As for `NC(=O)c1cn2c(-c3nccc(N4CCN5C(=O)CCCC5C4)n3)cnc2cn1` (stereo not drawn) [IV-257, 3-(4-(6-Oxooctahydro-2H-pyrido[1,2-a]pyrazin-2-yl)pyrimidin-2-yl)imidazo[1,2-a]pyrazine-6-carboxamide], the Ki was in the range of 10 to 100 nM.

Compound `N#CC1CCCCN1c1ccnc(-c2cnc3cnc(C(N)=O)cn23)n1` (stereo not drawn) [IV-258, 3-(4-(2-Cyanopiperidin-1-yl)pyrimidin-2-yl)imidazo[1,2-a]pyrazine-6-carboxamide] returned a Ki of 100 to 1000 nM.

`CC(=O)N1CCN(c2cccc(-c3cnc4cnc(C(F)(F)F)cn34)n2)CC1` [IV-259, 1-(4-(6-(6-(Trifluoromethyl)imidazo[1,2-a]pyrazin-3-yl)pyridin-2-yl)piperazin-1-yl)ethan-1-one] came in with a Ki of 100 to 1000 nM.

As to `CNC(=O)c1cn2c(-c3cccc(N4CCN(C(C)=O)CC4)n3)cnc2cn1` [IV-260, 3-(6-(4-Acetylpiperazin-1-yl)pyridin-2-yl)-N-methylimidazo[1,2-a]pyrazine-6-carboxamide], the Ki lay in the range of 10 to 100 nM.

`CC1CCCCN1c1ccnc(-c2cnc3cnc(C(N)=O)cn23)n1` (stereo not drawn) [IV-261, 3-(4-(2-Methylpiperidin-1-yl)pyrimidin-2-yl)imidazo[1,2-a]pyrazine-6-carboxamide] came in with a Ki of 10 to 100 nM.

`NC(=O)c1cn2c(-c3nccc(N4CCC(=O)N5CCCC5C4)n3)cnc2cn1` (stereo not drawn) [IV-262, 3-(4-(5-Oxohexahydro-1H-pyrrolo[1,2-a][1,4]diazepin-2(3H)-yl)pyrimidin-2-yl)imidazo[1,2-a]pyrazine-6-carboxamide]: the Ki was 100 to 1000 nM.

Compound `NC(=O)c1cn2c(-c3nccc(N4CC(=O)N5CCCCC5C4)n3)cnc2cn1` (stereo not drawn) [IV-263, 3-(4-(4-Oxooctahydro-2H-pyrido[1,2-a]pyrazin-2-yl)pyrimidin-2-yl)imidazo[1,2-a]pyrazine-6-carboxamide] yielded a Ki of 100 to 1000 nM.

`CC1CCCN(c2ccnc(-c3cnc4cnc(C(N)=O)cn34)n2)C1C` (stereo not drawn) [IV-264, 3-(4-(2,3-Dimethylpiperidin-1-yl)pyrimidin-2-yl)imidazo[1,2-a]pyrazine-6-carboxamide] returned a Ki of less than 10 nM.

As for `NC(=O)c1cn2c(-c3nccc(N4CCN5CCCCC5C4)n3)cnc2cn1` (stereo not drawn) [IV-265, 3-(4-(Octahydro-2H-pyrido[1,2-a]pyrazin-2-yl)pyrimidin-2-yl)imidazo[1,2-a]pyrazine-6-carboxamide], the Ki fell in the range of 100 to 1000 nM.

`NC(=O)c1cn2c(-c3nccc(N4CCC5(CC4)OCCO5)n3)cnc2cn1` [IV-266, 3-(4-(1,4-Dioxa-8-azaspiro[4.5]decan-8-yl)pyrimidin-2-yl)imidazo[1,2-a]pyrazine-6-carboxamide] had a Ki of 10 to 100 nM.

Turning to `CC(=O)N(C)C1CCN(c2ccnc(-c3cnc4cnc(C(N)=O)cn34)n2)C1` (stereo not drawn) [IV-267, 3-(4-(3-(N-Methylacetamido)pyrrolidin-1-yl)pyrimidin-2-yl)imidazo[1,2-a]pyrazine-6-carboxamide], the Ki lay in the range of 100 to 1000 nM.
